The values below come from patent US8114629B2, “Site specific incorporation of keto amino acids into proteins” (The Scripps Research Institute, priority 2002, dated 2012).

Data set [1] deals with E. coli DH10B cells. As to the kind of experiment: growth of cells in the presence of the unnatural amino acid during Z domain expression. The note with it: 1 mM; cells transformed with mutRNA^TyrCUA, LW1RS and Z domain gene (Lys7TAG).
Experimental: E. coli DH10B cells cotransformed with pLEIZ and pBK-LW1RS were grown in minimal media containing 1% glycerol and 0.3 mM leucine (GMML media) with 25 μg/mL kanamycin, 34 μg/mL of chloramphenicol, and 1.0 mM p-acetyl-(±)-phenylalanine. When cells reach an OD600 of 0.5, isopropyl-β-D-thiogalactopyranoside (IPTG) (1 mM) was added to induce protein expression.
Cells transformed with the mutRNA^TyrCUA, LW1RS and Z domain gene (Lys7TAG) were grown in the presence of 1 mM p-acetyl-(±)-phenylalanine.
Data set [2] concerns cells harboring the one of the three mutant TyrRS plasmids. Nature of the data set: chloramphenicol resistance of cells harboring mutant TyrRS plasmids selected for m-acetyl phenylalanine. In kind it is cell-based. The text has this:
Preparation of mutant TyrRS library plasmids: A library of plasmids encoding mutant M. jannaschii TryRSs directed at meta-substituted tyrosine derivatives was constructed, generally following the methods described in Example 1 of WO 2002/085923. Briefly, six residues (Tyr^32, Ala^67, His^70, Gln^155, Asp^158, Ala^167) in the active site of M. jannaschii TyrRS that are within 6.9 Å of the meta-position of the aryl ring of bound tyrosine in the crystal structure of Bacillus stearothermophilus TyrRS were mutated to all 20 amino acids at DNA level using the NNK codon scheme as described in Example 1 above. The constructed plasmid library pBK-lib contained around 1×10^9 independent clones.
Evolution of orthogonal tRNA-synthetase pairs for incorporation of m-acetyl phenylalanine: After 3 rounds of positive selection and 2 rounds of negative selection, five candidate clones (SEQ ID NO: 17-21 of WO 2002/085923 and SEQ ID NO: 49-53 of WO 2002/085923) emerged whose survival in chloramphenicol was dependent on the addition of the unnatural amino acid. In the absence of m-acetyl phenylalanine, the IC50 of chloramphenicol resistance for cells harboring the one of the three mutant TyrRS plasmids is 20 μg/ml. In the presence of m-acetyl phenylalanine, the IC50 of resistance to chloramphenicol for the same cells is 100 μg/ml. […]

Data set [3] deals with E. coli cells expressing mutant TyrRS and mutRNA^TyrCUA. Nature of the data set: in vivo assay based on suppression of the Asp112TAG codon in the CAT gene (chloramphenicol resistance), p-acetyl-L-phenylalanine synthetases. In kind it is cell-based. The conditions noted are these: Escherichia coli, read-out: IC50 value chloramphenicol, eleven mutant TyrRS.
Data set [4] addresses T1, mutRNA^TyrCUA/LW1RS (Methanocaldococcus jannaschii, UniProt Q57834, D158G/I159C/L162R/Y32L).
T1 construct: The mutant synthetase gene isolated from clone LW1 (LW1RS) was encoded in plasmid pBKLW1RS; expressed in transfected cells; host or cells: E. coli DH10B cotransformed with pLEIZ and pBK-LW1RS
Type of data set: cell-based, Methanococcus jannaschii. The note with it: mutant Z domain (Lys7TAG); from signal-to-noise ratio of more than 1500 in the intact protein mass spectrum.
Text: Protein expression and purification: Plasmid pLEIZ was used to express the Z-domain gene with an amber codon at the 7th position and a COOH-terminal His6 tag under the control of a bacteriophage T5 promoter and t0 terminator, and the mutRNA^TyrCUA gene under the control of the lpp promoter and rrnC terminator. The mutant synthetase gene isolated from clone LW1 (LW1RS) was encoded in plasmid pBKLW1RS under the control of the constitutive E. coli GlnRS promoter and terminator. E. coli DH10B cells cotransformed with pLEIZ and pBK-LW1RS were grown in minimal media containing 1% glycerol and 0.3 mM leucine (GMML media) with 25 μg/mL kanamycin, 34 μg/mL of chloramphenicol, and 1.0 mM p-acetyl-(±)-phenylalanine. When cells reach an OD600 of 0.5, isopropyl-β-D-thiogalactopyranoside (IPTG) (1 mM) was added to induce protein expression. After 5 hours, cells were pelleted and the protein was purified by Ni^2+ affinity chromatography under denaturing conditions according to the manufacturer's protocol (Qiagen, Valencia, Calif.). […] The yield of protein was measured by Bradford assay (BCA kit, Biorad, Hercules, Calif.). […]
Both the wt Z domain protein expressed by mutRNA^TyrCUA/wt TyrRS and the mutant Z domain protein expressed by the mutRNA^TyrCUA/LW1RS were analyzed by electrospray ionization Fourier transform ion cyclotron resonance mass spectrometry (FT-ICR MS). […]

Converted amounts (≈) assume the structure as drawn. Where two headings read alike, the source gives them in different places.

T1 sequence (Q57834 whole entry Y32L/D158G/I159C/L162R): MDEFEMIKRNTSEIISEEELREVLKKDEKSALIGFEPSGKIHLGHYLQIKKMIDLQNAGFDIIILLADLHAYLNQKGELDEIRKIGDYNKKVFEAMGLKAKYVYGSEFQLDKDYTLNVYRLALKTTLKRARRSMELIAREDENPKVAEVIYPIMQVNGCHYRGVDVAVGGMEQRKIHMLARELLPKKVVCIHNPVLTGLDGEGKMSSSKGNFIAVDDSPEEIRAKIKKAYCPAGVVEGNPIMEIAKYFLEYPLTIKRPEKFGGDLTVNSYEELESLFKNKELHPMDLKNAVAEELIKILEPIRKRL

As for `CC(=O)c1ccc(CC(N)C(=O)O)cc1` (racemic) [p-acetyl-(±)-phenylalanine], in data set [1], the “effect on growth rate of cells” value is recorded as “did not affect the growth rate of cells”.

As for `O=C(N[C@H](CO)[C@H](O)c1ccc([N+](=O)[O-])cc1)C(Cl)Cl` [chloramphenicol], the IC50 in data set [2] (in the presence of m-acetyl phenylalanine, read-out: IC50 of resistance to chloramphenicol) was 100 µg/mL; in data set [2] (read-out: IC50 of chloramphenicol resistance), 20 µg/mL (≈ 61.9 µM); in data set [3] (in the absence of p-acetyl-L-phenylalanine), 9 µg/mL (≈ 27.9 µM); in data set [3] (in the presence of p-acetyl-L-phenylalanine), 120 µg/mL.

As to `CC(=O)c1ccc(C[C@H](N)C(=O)O)cc1` [p-acetyl-L-phenylalanine], the “fidelity for the incorporation” value in data set [4] is on record as over 99.8%.

What is called IC50 is the midpoint of a concentration-inhibition curve.
